Laboratory results taken from patent US20060183119A1, “Method for determining predisposition to a physiological reaction in a patient” (UNIVERSITE LAVAL, priority 2002, published 2006).
Numbering of substitutions follows the chain as printed.

Key:
Format in all cases: in vitro ADME
Design in all cases: key to Function (SN-38G formation versus *1 allele): High: no significant difference in activity compared to *1 allele.; Low: significantly lower SN-38G formation versus *1 allele
[1] = molecular target: T1, UGT1A7*9 (Homo sapiens, UniProt Q9HAW7, G115S/N129K/R131K); experiment: SN-38 glucuronidation by microsomes of HEK293 cells expressing UGT1A7*9
T1 construct: expressed in transfected cells
T1 sequence (Q9HAW7 26-530 G115S/N129K/R131K): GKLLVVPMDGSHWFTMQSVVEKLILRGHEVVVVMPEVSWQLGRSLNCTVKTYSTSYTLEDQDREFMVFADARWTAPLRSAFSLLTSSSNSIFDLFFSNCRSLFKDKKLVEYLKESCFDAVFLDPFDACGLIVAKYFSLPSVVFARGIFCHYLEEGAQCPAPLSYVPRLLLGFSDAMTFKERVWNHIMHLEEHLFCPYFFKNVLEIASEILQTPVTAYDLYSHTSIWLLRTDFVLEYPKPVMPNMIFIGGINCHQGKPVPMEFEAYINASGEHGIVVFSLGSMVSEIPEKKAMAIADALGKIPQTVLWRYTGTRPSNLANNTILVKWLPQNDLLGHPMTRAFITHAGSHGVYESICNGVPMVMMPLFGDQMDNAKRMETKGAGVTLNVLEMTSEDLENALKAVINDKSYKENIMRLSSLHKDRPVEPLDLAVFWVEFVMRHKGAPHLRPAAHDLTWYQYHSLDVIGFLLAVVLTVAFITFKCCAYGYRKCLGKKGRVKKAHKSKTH
Description: (§1) Western blot analyses of UGT1A7 and UGT1A9 variants expressed in HEK293 cells were performed on microsomal proteins (10 μg) separated on a 10% SDS-polyacrylamide gel. After transferring the proteins, the membranes were probed with an anti-UGT1A RC-71 polyclonal antibody and with an anti-calnexin antibody. The relative levels of UGT1A9 (a) and UGT1A7 proteins (b) were determined by semi-quantitative densitometric analysis of the Enhanced chemiluminescence (ECL) image. The in vitro SN-38 activity was assessed using microsomal fractions prepared from HEK293 cells expressing the *1 and variant UGT1A9 (c) and UGT1A7 (d) alleles and incubated with 5 μM of SN-38 as described in Materials and Methods.
(§2) For the determination of Vmax and Km.

[2] = molecular target: T2, UGT1A7*4 (Homo sapiens, UniProt Q9HAW7, W208R); experiment: SN-38 glucuronidation by microsomes of HEK293 cells expressing UGT1A7*4
T2 construct: expressed in transfected cells
T2 sequence (Q9HAW7 26-530 W208R): T1 sequence (Q9HAW7 26-530 G115S/N129K/R131K) with S90G, K104N, K106R, W183R
Description: as §1, §2

[3] = molecular target: T3, UGT1A7*7 (Homo sapiens, UniProt Q9HAW7, E139D/N129K/R131K); experiment: SN-38 glucuronidation by microsomes of HEK293 cells expressing UGT1A7*7
T3 construct: expressed in transfected cells
T3 sequence (Q9HAW7 26-530 N129K/R131K/E139D): T1 sequence (Q9HAW7 26-530 G115S/N129K/R131K) with S90G, E114D
Description: as §1, §2

CCc1c2c(nc3ccc(O)cc13)-c1cc3c(c(=O)n1C2)COC(=O)[C@]3(O)CC [SN-38, 7-ethyl-10-hydroxycamptothecin]
SN-38 glucuronidating activity of the allele (in words) [1]: highest and low
Function (SN-38G formation versus *1 allele) ([1]; in vitro experiments): Low
SN-38 glucuronidating activity of the allele (in words) [2]: low
Function (SN-38G formation versus *1 allele) ([2]; in vitro experiments): Low
Function (SN-38G formation versus *1 allele) ([3]; in vitro experiments): High
lower rates of SN-38G formation compared to UGT1A7*1 ([3]; range given for *5, *7 and *8 together): 38-76%
